Assay results taken from patent US6403630B1, “Treating cancers associated with overexpression of HER-2/neu” (Cornell Research Foundation, Inc., priority 1999, dated 2002).

Legend:
[1] = system: HER-2/neu positive breast cancer; assay: Adjuvant therapy of a patient with HER-2/neu positive breast cancer; assay type: in vivo, human
Procedure: A patient with HER-2/neu positive breast cancer is treated with Celebrex® for adjuvant therapy at an oral dose of 400 mg twice a day for five years after a mastectomy. […] The same result is obtained when the Celebrex® is replaced with an oral dose of 50 mg per day of Vioxx® for five years.
The patient also received an oral dose of 400 mg Celebrex® twice daily for one year or an oral dose of 50 mg Vioxx® daily for one year.

[2] = system: HER-2/neu positive breast cancer that has metastasized; assay: Treatment of a patient with metastasized HER-2/neu positive breast cancer; assay type: in vivo, human
Procedure: Breast cancer is determined to have metastasized to lung and liver three years after a mastectomy is performed on a patient with HER-2/neu positive breast cancer. The patient is treated with oral doses of Celebrex® of 400 mg twice a day or of Vioxx® of 50 mg per day.
After three months, the Celebrex® or Vioxx® was continued in combination regimen with Taxol® at a dose of 175 mg/m^2 administered intravenously every three weeks.
Breast cancer is determined to have metastasized to bone nine years after a mastectomy is performed on a patient with HER-2/neu positive breast cancer.
After 90 days, oral cyclophosphamide at a dose of 3 mg/kg/day and doxoribicin administered intravenously weekly at a dose of 20 mg/m^2, are added to the drug regimen.

[3] = system: HER-2/neu positive colon cancer; assay: Treatment of a patient after resection of HER-2/neu positive colon cancer; assay type: in vivo, human; details: cancer localized to bowel wall, oral Celebrex 400 mg twice a day or Vioxx 50 mg per day for five years
Procedure: A patient undergoes resection of colon cancer which proves to be HER-2/neu positive. The colon cancer is found to be localized to the bowel wall; there is no evidence of extracolonic cancer. The patient is treated with Celebrex® at oral dose of 400 mg twice a day for five years or an oral dose of Vioxx® at 50 mg per day for five years.

COX-2 in 184B5/HER cells = assay: Amounts of COX-2 in 184B5/HER cells after treatment with MAP kinase inhibitors; assay type: cell-based, human
Description: The cells used were 184B5 and 184B5/HER cell lines. They were obtained from a collaborator. The 184B5 cell line is an immortalized but nontumorogenic human breast epithelial cell line that was established from a reduction mammoplasty and is described in Stampfer, M. R., et al., Proc. Natl. Acad. Sci. USA 82, 2394-2398 (1985). The 184B5/HER cell line was derived by stably transfecting 184B5 cells with a mutationally activated human HER-2/neu oncogene; these cells form rapidly growing tumors when injected into athymic nude mice. The 184B5/HER cell line is described in Pierce, J. H., et al., Oncogene 6, 1189-1194(1991). Cells were maintained in MEM (from Life Technologies, Inc. of Grand Island, N.Y.)—KBM, i.e., kerotinocyte basal medium (from Clonetics Corp. of San Diego, Calif.), mixed in a ratio of 1:1. […]
Western blotting was carried out to determine whether the differences in PGE2 production were related to differences in amounts of COX enzymes. […] The protein concentration of the supernatant was measured as described in Lowry, O. H., et al., J. Biol. Chem. 193, 265-275 (1951). […]
The activity of p44/42 MAP kinase was measured using a nonradioactive method where the assay was performed with a p44/42 MAP kinase activity kit obtained from New England Biolabs (of Beverly, Mass.) using the manufacturer's instructions. […]

[4] = adjuvant therapy alone, oral, five years after a mastectomy (Celebrex 400 mg twice a day; Vioxx 50 mg per day)
[5] = adjuvant therapy with HERCEPTIN (250 mg IV loading, 10 weekly 125 mg IV), oral Celebrex 400 mg twice daily or Vioxx 50 mg daily for one year
[6] = metastasized to bone, after failure of prior chemotherapy, oral Celebrex 400 mg twice a day or Vioxx 50 mg per day plus HERCEPTIN
[7] = metastasized to bone, after 90 days oral cyclophosphamide 3 mg/kg/day and weekly IV doxorubicin 20 mg/m^2 added to the COX-2 inhibitor plus HERCEPTIN regimen
[8] = metastasized to lung and liver, after three months continued in combination with Taxol 175 mg/m^2 IV every three weeks
[9] = metastasized to lung and liver, oral Celebrex 400 mg twice a day or Vioxx 50 mg per day alone

Row | SMILES | Recurrence of breast cancer [1, 4] | Recurrence of breast cancer [1, 5] | tumor burden [2, 6] | tumor burden [2, 7] | tumor burden [2, 8] | tumor burden [2, 9] | Recurrence of colon cancer [3] | amounts of COX-2 (COX-2 in 184B5/HER cells)
1 | Cc1ccc(-c2cc(C(F)(F)F)nn2-c2ccc(S(N)(=O)=O)cc2)cc1 [Celebrex®, 4-[5-(4-Methylphenyl)-3-(trifluoromethyl)-1H-pyrazol-1-yl]benzenesulfonamide] | does not occur | does not occur | reduced tumor burden | still further reduced tumor burden | further reduced tumor burden | reduced tumor burden | does not occur | 
2 | COc1cccc(-c2cc(=O)c3ccccc3o2)c1N [PD 98059, 2′-amino-3′-methoxyflavone] |  |  |  |  |  |  |  | decrease
3 | Oc1ccc(-c2nc(-c3ccc(F)cc3)c(-c3ccncc3)[nH]2)cc1 [SB 202190, 4-(4-fluorophenyl)-2-(4-hydroxyphenyl)-5-(4-pyridyl)-1H-imidazole] |  |  |  |  |  |  |  | down-regulated
4 | CS(=O)(=O)c1ccc(C2=C(c3ccccc3)C(=O)OC2)cc1 [Vioxx®, 3-(Phenyl)-4-(4-(methylsulfonyl)phenyl)-2-(5H)-furanone] | does not occur | does not occur | reduced tumor burden | still further reduced tumor burden | further reduced tumor burden | reduced tumor burden | does not occur | 
